Where two headings read alike, the source gives them in different places. One block for each compound: values may come before it. Where no end group is shown, it is not given here.
Key:
Test in all cases: Fluorescence polarization displacement assay
Type in all cases: binding
[1] = biological target: MDM2 SWIB domain, Takifugu rubripes; conditions: for IC50 / Ki: T.rub MDM2 1500 nM
[2] = biological target: T1, MDM2H.sapiens SWIB domain (Homo sapiens, UniProt Q00987)
T1 construct: NusA-TEV-His6-PreScission (N, cleaved yes); made in house; host or cells: Escherichia coli BL21 (DE3)

[3] = biological target: MDM2 SWIB domain, Oncorhynchus kisutch; conditions: for Kd: FP displacement of FITC-p53TADhuman^15–26 (15 nM) from MDM2, KD from IC50, 20 mM sodium phosphate pH 7.4, 150 mM NaCl, 1 mM TCEP; for IC50 / Ki: O.kis MDM2 2000 nM
[4] = biological target: MDM2 SWIB domain, Anguilla anguilla; conditions: for Kd: FP displacement of FITC-p53TADhuman^15–26 (15 nM) from MDM2 (1 μM), KD from IC50, 20 mM sodium phosphate pH 7.4, 150 mM NaCl, 1 mM TCEP
[5] = biological target: MDM2 SWIB domain, Clupea harengus; conditions: for Kd: FP displacement of FITC-p53TADhuman^15–26 (15 nM) from MDM2 (1 μM), KD from IC50, 20 mM sodium phosphate pH 7.4, 150 mM NaCl, 1 mM TCEP
[6] = labeled probe 15 nM, replicate 1, read-out: IC50 [M] (IT)
[7] = labeled probe 15 nM, replicate 3, read-out: IC50 [M] (IT)
[8] = mean of the replicates, probe 15 nM, read-out: IC50 [nM], mean of the replicates
[9] = labeled probe 15 nM, replicate 2, read-out: IC50 [M] (IT)
[10] = average of the replicates, probe 15 nM, Kd for probe […], read-out: Ki [nM] Average
[11] = average of the replicates, probe 15 nM, Kd for probe […], read-out: Ki [µM] Average
[12] = calculated from IC50, Kd for probe […], probe 15 nM, replicate 1, read-out: Ki
[13] = calculated from IC50, Kd for probe […], probe 15 nM, replicate 2, read-out: Ki
[14] = calculated from IC50, Kd for probe […], probe 15 nM, replicate 3, read-out: Ki
[15] = equals the mean of the replicates, read-out: IC50 [nM], mean
[16] = mean of the replicates (n = 3 or 6), read-out: Ki [nM] Average
[17] = mean of the replicates (n = 3 or 6), read-out: Ki [µM] Average
[18] = replicate 1, MDM2 1000 nM, labeled probe 15 nM, read-out: IC50 [M] (IT)
[19] = replicate 1, calculated from IC50 with Kd for probe […], read-out: Ki
[20] = replicate 2, MDM2 1000 nM, labeled probe 15 nM, read-out: IC50 [M] (IT)
[21] = replicate 2, calculated from IC50 with Kd for probe […], read-out: Ki
[22] = replicate 3, MDM2 1000 nM, labeled probe 15 nM, read-out: IC50 [M] (IT)
[23] = replicate 3, calculated from IC50 with Kd for probe […], read-out: Ki

Chain of MDM2 SWIB domain, Clupea harengus (as listed by the source): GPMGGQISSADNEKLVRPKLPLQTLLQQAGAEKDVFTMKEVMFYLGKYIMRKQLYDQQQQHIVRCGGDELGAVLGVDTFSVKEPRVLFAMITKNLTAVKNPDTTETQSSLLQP
Chain of MDM2 SWIB domain, Anguilla anguilla (as listed by the source): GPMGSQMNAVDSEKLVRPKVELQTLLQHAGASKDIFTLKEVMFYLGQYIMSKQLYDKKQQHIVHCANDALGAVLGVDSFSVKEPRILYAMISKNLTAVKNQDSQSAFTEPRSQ
Chain of MDM2 SWIB domain, Takifugu rubripes (as listed by the source): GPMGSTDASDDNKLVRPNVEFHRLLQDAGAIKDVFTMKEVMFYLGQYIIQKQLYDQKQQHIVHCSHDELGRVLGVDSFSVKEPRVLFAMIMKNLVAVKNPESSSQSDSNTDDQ
T1 sequence (Q00987 with tags, fused parts or gaps): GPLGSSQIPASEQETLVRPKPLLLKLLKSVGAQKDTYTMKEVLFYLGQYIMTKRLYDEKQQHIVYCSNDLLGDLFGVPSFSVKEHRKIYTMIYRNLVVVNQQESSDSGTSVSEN
Chain of MDM2 SWIB domain, Oncorhynchus kisutch (as listed by the source): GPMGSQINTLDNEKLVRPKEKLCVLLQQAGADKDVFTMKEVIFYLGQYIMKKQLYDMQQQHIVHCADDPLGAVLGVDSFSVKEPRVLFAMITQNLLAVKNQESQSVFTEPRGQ

Kd ([1]; FP displacement of FITC-p53TADhuman^15–26 (15 nM) from MDM2, KD from IC50, 20 mM sodium phosphate pH 7.4, 150 mM NaCl, 1 mM TCEP): 470 ± 30 nM | IC50 [1, 6]: 4.93e-06 M | IC50 ([1]; labeled probe 15 nM, replicate 2, read-out: IC50): 4.16e-06 M | IC50 [1, 7]: 4.19e-06 M | IC50 ([1]; labeled probe 15 nM, replicate 4, read-out: IC50 [M] (IT)): 3.43e-06 M | IC50 ([1]; labeled probe 15 nM, replicate 5, read-out: IC50 [M] (IT)): 4.05e-06 M | IC50 ([1]; labeled probe 15 nM, replicate 6, read-out: IC50 [M] (IT)): 4.53e-06 M | Ki ([1]; average of the replicates, probe 15 nM, Kd for probe 290 nM, read-out: Ki [nM] Average): 475 nM | Ki ([1]; average of the replicates, probe 15 nM, Kd for probe 290 nM, read-out: Ki [µM] Average): 475 nM | Ki ([1]; calculated from IC50, Kd for probe 290 nM, probe 15 nM, replicate 1, read-out: Ki): 592 nM | Ki ([1]; calculated from IC50, Kd for probe 290 nM, probe 15 nM, replicate 2, read-out: Ki): 467 nM | Ki ([1]; calculated from IC50, Kd for probe 290 nM, probe 15 nM, replicate 3, read-out: Ki): 471 nM | Ki ([1]; calculated from IC50, Kd for probe 290 nM, probe 15 nM, replicate 4, read-out: Ki): 347 nM | Ki ([1]; calculated from IC50, Kd for probe 290 nM, probe 15 nM, replicate 5, read-out: Ki): 449 nM | Ki ([1]; calculated from IC50, Kd for probe 290 nM, probe 15 nM, replicate 6, read-out: Ki): 527 nM | IC50 [1, 8]: 4.21e-06 M
Compound: GPMGMEDEGFSLPLSQDTFQDLWENVAAPSIVTIPTTSLENEQWHQELLMNYPELPFNEELFNLPSEMASKDSANLSTPT [T.rub p53 P1 full, expressed full-length Japanese puffer p53TAD paralog 1]

Compound: Ac-SQESFQELWNMVM [Tele p53 ML]
IC50 [2]: 456 nM | Kd [2]: 39 nM

Kd [3]: 70 ± 10 nM | IC50 [3, 6]: 2.13e-06 M | IC50 [3, 9]: 2.37e-06 M | IC50 [3, 7]: 2.18e-06 M | Ki [3, 10]: 68.6 nM | Ki [3, 11]: 69 nM | Ki [3, 12]: 55.4 nM | Ki [3, 13]: 88.9 nM | Ki [3, 14]: 61.7 nM | IC50 [3, 8]: 2.23e-06 M
Compound: GPMGMADLAENVSLPLSQESFEDLWKMNLNLMAVQPPVTESWVGYDNFMMEAPLQVEFDPSLFEVSATEPAPQPSISTLDTGSPPTST [O.kis p53 P2 full, expressed full-length coho salmon p53TAD paralog 2]

Compound: Ac-SQESFEDLWKMNL [O.kis p53 P2 short]
IC50 [2]: 5930 nM | Ki [2]: 787 nM

Kd [4]: 60 ± 10 nM | IC50 [4, 15]: 1230 nM | Ki [4, 16]: 63.5 nM | Ki [4, 17]: 63.5 nM | IC50 [4, 18]: 1360 nM | Ki [4, 19]: 85.1 nM | IC50 [4, 20]: 1080 nM | Ki [4, 21]: 39.5 nM | IC50 [4, 22]: 1240 nM | Ki [4, 23]: 65.8 nM
Compound: GPMGMTEQEGTGALEYSLSQDETFQALWNTVTVPTEDEGWGSLDNQYLVGSPLQDGFDEKLFDVPATPAPPQPSGSALDSGAPPAST [A.ang p53 P2 full, expressed full-length European eel p53TAD paralog 2]

Compound: Ac-SQGTFDEIWASNF [C.har p53 P1 short]
IC50 [2]: 9330 nM | Ki [2]: 1250 nM

remark on affinity beside the average Ki ([2]; probe 15 nM, protein 200 nM, calculated Ki negative): very high affinity
Compound: CC(C)C[C@H](NC(=O)[C@@H](NC(=O)[C@H](CC(N)=O)NC(=O)[C@H](CC(N)=O)NC(=O)[C@H](CCC(=O)O)NC(=O)[C@H](C)NC(=O)[C@H](CC(C)C)NC(=O)[C@H](CC(C)C)NC(=O)[C@H](CCCCN)NC(=O)[C@H](Cc1c[nH]c2ccccc12)NC(=O)[C@H](CC(C)C)NC(=O)[C@H](CC(=O)O)NC(=O)[C@H](CO)NC(=O)[C@H](Cc1ccccc1)NC(=O)[C@@H](NC(=O)[C@@H](N)CCC(=O)O)[C@@H](C)O)C(C)C)C(=O)O [H.sap p53 P27A]

Compound: Ac-SQESFQELWNMVA [Acti p53 AA]
IC50 [2]: 459 nM | Kd [2]: 39 nM

Kd [3]: 60 ± 10 nM | IC50 [3, 6]: 2.27e-06 M | IC50 [3, 9]: 2.26e-06 M | IC50 [3, 7]: 1.96e-06 M | Ki [3, 10]: 59.6 nM | Ki [3, 11]: 60 nM | Ki [3, 12]: 75.2 nM | Ki [3, 13]: 73.4 nM | Ki [3, 14]: 30.3 nM | IC50 [3, 8]: 2.16e-06 M
Compound: GPMGMEEQELSFPMSQGSFQQLWETNMSTQGSNIPPFGTGNWSDLDVSLAPVLPEATFHEDFDEGLFELPEPLAVEPLMSPLDSVPPPAST [O.kis p53 P1b full, expressed full-length coho salmon p53TAD paralog 1b]

Kd [4]: 230 ± 20 nM | IC50 [4, 15]: 2210 nM | Ki [4, 16]: 229 nM | Ki [4, 17]: 229 nM | IC50 [4, 18]: 2080 nM | Ki [4, 19]: 208 nM | IC50 [4, 20]: 2490 nM | Ki [4, 21]: 277 nM | IC50 [4, 22]: 2060 nM | Ki [4, 23]: 203 nM
Compound: GPMGMTEQEAESLPLSQESFQELWKMMCPPATIHEPLSVNDGWHLESLLSETPLQESIDAGVFDLPTTLPPQPSVSAFNGDAALSST [A.ang p53 P1 full, expressed full-length European eel p53TAD paralog 1]

Compound: Ac-SQESFQELWKMMC [A.ang p53 P1 short]
IC50 [2]: 265 nM | Ki [2]: 12.9 nM

Compound: Ac-SQDSFKELWDQLP [M.zeb p53 P1 short]
IC50 [2]: 2150 nM | Ki [2]: 270 nM

Compound: Ac-SQDTFQDLWENVA [T.rub p53 P1 short]
IC50 [2]: 12700 nM | Ki [2]: 1710 nM

Compound: Ac-SQESFQELWNMVI [L.ocu p53 short]
IC50 [2]: 1050 nM | Ki [2]: 120 nM

Kd [5]: 40 ± 10 nM | IC50 [5, 15]: 904 nM | Ki [5, 16]: 37.1 nM | Ki [5, 17]: 37 nM | IC50 [5, 18]: 913 nM | Ki [5, 19]: 39.8 nM | IC50 [5, 20]: 983 nM | Ki [5, 21]: 59.7 nM | IC50 [5, 22]: 815 nM | Ki [5, 23]: 11.9 nM
Compound: GPMGMNDQGDSPDFEDLWNSIVPPVADVPWETSYLPESFDEQVFEQLQVSEPYIPTLGGGSPPCSA [C.har p53 P2 full, expressed full-length Atlantic herring p53TAD paralog 2]

Compound: Ac-GQCSFQQLWESNM [O.kis p53 P1a short]
IC50 [2]: 23200 nM | Ki [2]: 3150 nM

Compound: Ac-SQDETFQALWNTVT [A.ang p53 P2 short]
IC50 [2]: 5780 nM | Ki [2]: 767 nM

Compound: Ac-SQESFQDLWNMVT [Acti p53 ML]
IC50 [2]: 1510 nM | Ki [2]: 183 nM

Kd [3]: 48 ± 5 nM | IC50 [3, 6]: 2.11e-06 M | IC50 [3, 9]: 2.02e-06 M | IC50 [3, 7]: 2.12e-06 M | Ki [3, 10]: 48.4 nM | Ki [3, 11]: 48 nM | Ki [3, 12]: 52.4 nM | Ki [3, 13]: 38.8 nM | Ki [3, 14]: 54.1 nM | IC50 [3, 8]: 2.08e-06 M
Compound: GPMGMEELSPPLGQCSFQQLWESNMTPQGPSIPLVATENWSDLDVSLLPDATLHKVFDEVLFELLEPPVVEPSVSTLDSVPPPAST [O.kis p53 P1a full, expressed full-length coho salmon p53TAD paralog 1a]

Compound: CC[C@H](C)[C@H](NC(=O)[C@H](CO)NC(=O)[C@H](CC(N)=O)NC(=O)[C@H](Cc1c[nH]c2ccccc12)NC(=O)[C@H](CC(C)C)NC(=O)[C@H](CC(=O)O)NC(=O)[C@H](CCC(=O)O)NC(=O)[C@H](Cc1ccccc1)NC(=O)[C@H](CC(=O)O)NC(=O)[C@@H]1CCCN1C(=O)[C@H](CO)NC(=O)[C@H](CC(=O)O)NC(C)=O)C(=O)N[C@H](C(=O)O)C(C)C [C.har p53 P2 short]
IC50 [2]: 2310 nM | Ki [2]: 293 nM

Compound: Ac-SQESFQELWKMIL [Tele p53 AA]
IC50 [2]: 105 nM | KD ([2]; FP displacement, printed in nM (Fig. S4 A native and B human MDM2)): lowest_Kd | Ki, remark beside the average ([2]; H.sap MDM2, labeled probe 15 nM, protein 200 nM, result in words): very high affinity

Kd [5]: 190 ± 40 nM | IC50 [5, 15]: 1440 nM | Ki [5, 16]: 189 nM | Ki [5, 17]: 190 nM | IC50 [5, 18]: 1470 nM | Ki [5, 19]: 199 nM | IC50 [5, 20]: 1660 nM | Ki [5, 21]: 252 nM | IC50 [5, 22]: 1180 nM | Ki [5, 23]: 117 nM
Compound: GPMGMNQDEMTELPMSQGTFDEIWASNFVNNLDKTILDDLPPAFSNPSIHTLMDLGPSGVEGFVGLELPLDGSAPTPSSSPGMDCLPPTATT [C.har p53 P1 full, expressed full-length Atlantic herring p53TAD paralog 1]

Compound: Ac-SQDSFRELWESVV [C.arg p53 P1 short]
IC50 [2]: 8080 nM | Ki [2]: 1080 nM
